Measured values as given in patent publication US20180153995A1, “USE OF ANTIMICROBIAL POLYMERS FOR RE-SENSITIZATION OF MICROORGANISMS UPON EMERGENCE OF RESISTANCE TO ANTI-MICROBIAL AGENTS” (Technion Research & Development Foundation Limited, priority 2008, published 2018).
Converted amounts (≈) assume the structure as drawn. “And” between values parts separate entries of the source, which are not always exact repeats. Equal entries are not always repeated. Where two headings read alike, the source gives them in different places.

Tests used:
[1] = tested on: E. coli N282 (L4 mutation); type: cell-based, Escherichia coli; settings: E. coli N282 L4 mutation
[2] = tested on: E. coli AB301 (wild type); assay: Erythromycin MIC with or without sub-MIC polymer; type: cell-based, Escherichia coli
ATCC 29213 = assay: microbe, parasite or virus in culture; type: cell-based, Staphylococcus aureus; settings: Staphylococcus aureus, ATCC29213; read-out: MIC
Experimental: (§1) MICs were determined by microdilution susceptibility testing in 96-well plates (by Nunc) using inocula of 10^5 bacteria per ml. Cell populations were evaluated by optical density measurements at 620 nm and were calibrated against a set of standards. Hundred (100) μl of a bacterial suspension were added to 100 μl of culture medium (control) or to 100 μl of culture medium containing various polymer concentrations in 2-fold serial dilutions. Inhibition of proliferation was determined by optical density measurements at 620 nm after an incubation period of 24 hours at 37° C.
(§2) The fractionary inhibitory (FIC) concentration index for combinations of two antimicrobial agents was calculated as follows: FIC index=FICA+FICB=A/MICA+B/MICB where A and B are the MIC values of agent A and agent B in the combination, MICA and MICB are the MICs of agent A and agent B alone, and FICA and FICB are the FICs of agent A and agent B.
(§3) The FIC indexes were interpreted as follows: less than 0.5 indicates a clear re-sensitizing effect; from 0.5 to 4 indicates a marginal or null re-sensitizing effect; and over 4 indicates antagonism.

MRSA 15918 = assay: microbe, parasite or virus in culture; type: cell-based, Staphylococcus aureus; settings: Staphylococcus aureus, MRSA; read-out: MIC
Experimental: as §1, §2, §3

ATCC 25923 = assay: microbe, parasite or virus in culture; type: cell-based, Staphylococcus aureus; settings: Staphylococcus aureus, ATCC25923; read-out: MIC
Experimental: as §1

S. aureus ATCC 29213 [3] = assay: microbe, parasite or virus in culture; settings: Staphylococcus aureus, ATCC29213, read-out: Oxacillin's MIC
Experimental: In parallel, MIC evolution was compared concomitantly for each new sub-culture, using bacteria harvested from control wells (wells cultured without antimicrobial agent from the previous sub-culture). The relative MIC was calculated for each experiment from the ratio of MIC obtained for subculture “n” to that obtained for first-time exposure.
The relative MIC was determined as the normalized ratio of the MIC obtained for a given subculture to the MIC of the control.
MICs were determined by microdilution susceptibility testing in 96-well plates using inocula of 10^5 bacteria per ml. Cell populations were evaluated by optical density measurements at 600 nm and were calibrated against a set of standards.
In parallel, MIC evolution was compared concomitantly for each new generation, using bacteria harvested from control wells (wells cultured without antimicrobial agent from the previous generation). The relative MIC was calculated for each experiment from the ratio of MIC obtained for subculture “n” to that obtained for first-time exposure. […] MICs were determined by microdilution susceptibility testing in 96-well plates. Cell populations were evaluated by optical density measurements at 600 nm and were calibrated against a set of standards.

S. aureus ATCC 29213 [4] = settings: as determined by the Clinical and Laboratory Standard Institute; cited from earlier work
E. coli CI14213 = type: cell-based, Escherichia coli
Summary of the method: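 Broth microdilution, inocula 10^5 bacteria/ml, 24 h at 37 °C. Growth read as OD620 against calibration standards.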

E. coli D21 = assay: Antibiotic MIC with or without sub-MIC polymer (Tables 20, 21); type: cell-based, Escherichia coli
E. coli G11a1 = assay: as above; type: cell-based, Escherichia coli
Experimental: as §1

Structure (SMILES): CC[C@H]1OC(=O)[C@H](C)[C@@H](O[C@H]2C[C@@](C)(OC)[C@@H](O)[C@H](C)O2)[C@H](C)[C@@H](O[C@@H]2O[C@H](C)C[C@H](N(C)C)[C@H]2O)[C@](C)(O)C[C@@H](C)C(=O)[C@H](C)[C@@H](O)[C@]1(C)O [Erythromycin, erythromycin]
- Antibiotic MIC ([1]; +¼ MIC C12K(NC8K)5NH2): 512 µg/mL
- Antibiotic MIC ([1]; +¼ MIC C12K(NC8K)7NH2): 512 µg/mL
- Antibiotic MIC ([1]; +½ MIC C12K(NC8K)5NH2): 8 to 16 µg/mL
- Antibiotic MIC ([1]; +⅓ MIC C12K(NC8K)7NH2): 512 µg/mL
- Antibiotic MIC ([1]; no OAK, Table 18): 512 µg/mL
- Antibiotic MIC ([1]; no OAK, Table 19): 512 µg/mL
- Antibiotic MIC ([2]; +¼ MIC C12K(NC8K)5NH2): 32 µg/mL
- Antibiotic MIC ([2]; +¼ MIC C12K(NC8K)7NH2): 32 µg/mL
- Antibiotic MIC ([2]; +½ MIC C12K(NC8K)5NH2): 8 µg/mL
- Antibiotic MIC ([2]; +½ MIC C12K(NC8K)7NH2): 4 to 8 µg/mL
- Antibiotic MIC ([2]; +⅓ MIC C12K(NC8K)5NH2): 16 to 32 µg/mL
- Antibiotic MIC ([2]; +⅓ MIC C12K(NC8K)7NH2): 16 to 32 µg/mL

Structure (SMILES): Cc1onc(-c2ccccc2)c1C(=O)N[C@@H]1C(=O)N2[C@@H]1SC(C)(C)[C@@H]2C(=O)O [Oxacillin, oxacillin]
- MIC (ATCC 29213): 0.09 µg/mL
- MIC (MRSA 15918): 64 µg/mL
- MIC (ATCC 25923): 0.17 µg/mL (≈ 0.423 µM)
- MIC (S. aureus ATCC 29213 [3]): 0.28 µM and 0.125 µg/mL
- Oxacillin's MIC per CLSI M100-S15 (S. aureus ATCC 29213 [4]): 0.125 to 0.5 µg/mL
- activity of oxacillin alone (E. coli CI14213; E. coli CI14213, 24 hours incubation): inactive
- concentration up to which E. coli is insensitive to oxacillin (E. coli CI14213; E. coli, oxacillin alone): > 512 µg/mL

Structure (SMILES): CC1(C)S[C@@H]2[C@H](NC(=O)Cc3ccccc3)C(=O)N2[C@H]1C(=O)O [Penicillin G, penicillin G]
- Antibiotic MIC, None (E. coli D21; antibiotic alone (Table 20)): 512 µg/mL
- Antibiotic MIC, None (E. coli D21; antibiotic alone (Table 21)): 512 µg/mL
- Antibiotic MIC in presence of C12K(NC8K)5NH2 (SEQ ID NO: 3), +¼ MIC (E. coli D21; polymer at ¼ of its MIC): 512 µg/mL
- Antibiotic MIC in presence of C12K(NC8K)7NH2 (SEQ ID NO: 4), +¼ MIC (E. coli D21; polymer at ¼ of its MIC): 512 µg/mL
- Antibiotic MIC in presence of C12K(NC8K)5NH2 (SEQ ID NO: 3), +½ MIC (E. coli D21; polymer at ½ of its MIC): 256 µg/mL
- Antibiotic MIC in presence of C12K(NC8K)7NH2 (SEQ ID NO: 4), +½ MIC (E. coli D21; polymer at ½ of its MIC): 256 µg/mL
- Antibiotic MIC in presence of C12K(NC8K)5NH2 (SEQ ID NO: 3), +⅓ MIC (E. coli D21; polymer at ⅓ of its MIC): 256 to 512 µg/mL
- Antibiotic MIC in presence of C12K(NC8K)7NH2 (SEQ ID NO: 4), +⅓ MIC (E. coli D21; polymer at ⅓ of its MIC): 512 µg/mL
- Antibiotic MIC, None (E. coli G11a1; antibiotic alone (Table 20)): 512 µg/mL
- Antibiotic MIC, None (E. coli G11a1; antibiotic alone (Table 21)): 512 µg/mL
